Where two headings read alike, the source gives them in different places.
Assays:
[1] = rabbits, EU criteria (ECETOC, 1996); solution of 35% or less; cited from earlier work
bio burden = conditions: for Log reduction in bio burden: KIMGUARD bag, air RH=20% at 12 m/s over exterior

Substance: hydrogen peroxide [H2O2]
- Classification as skin irritant [1]: would not be classified as skin irritants
- Pennicylinders Plate count (bio burden; Expt A: initial H2O2 10%, nebulizer 2/18 sec ON/Off for 2 mins, total exposure 5 mins, 40 °C in bag): 0
- Pennicylinders Log reduction of bio burden (bio burden; Expt A: initial H2O2 10%, nebulizer 2/18 sec ON/Off for 2 mins, total exposure 5 mins, 40 °C in bag, 0.0338 g/L delivered): 6.0
- Pennicylinders Plate count (bio burden; Expt B: initial H2O2 30%, nebulizer 8/12 sec ON/Off for 2 mins, total exposure 2 mins, 44 °C in bag): 0
- Pennicylinders Log reduction of bio burden (bio burden; Expt B: initial H2O2 30%, nebulizer 8/12 sec ON/Off for 2 mins, total exposure 2 mins, 44 °C in bag, 0.246 g/L delivered): 6.0
- Log reduction in bio burden (bio burden; within 2 minutes nebulising a 30% peroxide solution): 6
- Log reduction in bio burden (bio burden; within 5 minutes nebulising a 10% peroxide solution): 6
